Several values for one entry are separate records, joined by “and”; a condition that tells them apart may be missing. Equal values may be shown once.
System: 454973-116-R2-J3-PDC spheroids, percent test/control viability
Experiment: Anticancer human tumor 454973-116-R2-J3-PDC patient-derived pancreatic carcinoma cell line growth inhibition [CLK]
Settings: spheroids with HUVEC and MSC; for viability, T/C: stronger effect = lower value
Outline: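 Multi-cell-type spheroids combined patient-derived tumor cells with HUVEC endothelial cells and human mesenchymal stem cells. Paired agents were dosed in half-log steps down from about clinical Cmax, or from 10 microM where Cmax was unknown.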

[1] = curve of first compound, second compound 0.0316 µM
[2] = curve of first compound, second compound 0.1 µM
[3] = curve of first compound, second compound 0.316 µM
[4] = curve of first compound, second compound 1 µM
[5] = curve of first compound, second compound 3.16 µM
[6] = curve of first compound, second compound 10 µM
[7] = second compound 0.0316 µM, first compound 0.00316 µM
[8] = second compound 0.0316 µM, first compound 0.01 µM
[9] = second compound 0.0316 µM, first compound 0.0316 µM
[10] = second compound 0.0316 µM, first compound 0.1 µM
[11] = second compound 0.1 µM, first compound 0.00316 µM
[12] = second compound 0.1 µM, first compound 0.01 µM
[13] = second compound 0.1 µM, first compound 0.0316 µM
[14] = second compound 0.1 µM, first compound 0.1 µM
[15] = second compound 0.316 µM, first compound 0.00316 µM
[16] = second compound 0.316 µM, first compound 0.01 µM
[17] = second compound 0.316 µM, first compound 0.0316 µM
[18] = second compound 0.316 µM, first compound 0.1 µM
[19] = second compound 1 µM, first compound 0.00316 µM
[20] = second compound 1 µM, first compound 0.01 µM
[21] = second compound 1 µM, first compound 0.0316 µM
[22] = second compound 1 µM, first compound 0.1 µM
[23] = second compound 3.16 µM, first compound 0.00316 µM
[24] = second compound 3.16 µM, first compound 0.01 µM
[25] = second compound 3.16 µM, first compound 0.0316 µM
[26] = second compound 3.16 µM, first compound 0.1 µM
[27] = second compound 10 µM, first compound 0.00316 µM
[28] = second compound 10 µM, first compound 0.01 µM
[29] = second compound 10 µM, first compound 0.0316 µM
[30] = second compound 10 µM, first compound 0.1 µM
[31] = second compound 0.0316 µM, first compound 0.316 µM
[32] = second compound 0.0316 µM, first compound 1 µM
[33] = second compound 0.1 µM, first compound 0.316 µM
[34] = second compound 0.1 µM, first compound 1 µM
[35] = second compound 0.316 µM, first compound 0.316 µM
[36] = second compound 0.316 µM, first compound 1 µM
[37] = second compound 1 µM, first compound 0.316 µM
[38] = second compound 1 µM, first compound 1 µM
[39] = second compound 3.16 µM, first compound 0.316 µM
[40] = second compound 3.16 µM, first compound 1 µM
[41] = second compound 10 µM, first compound 0.316 µM
[42] = second compound 10 µM, first compound 1 µM
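Also: spheroids exposed to compounds for 7 days before readout.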

`Cn1ncnc1[C@H]1c2n[nH]c(=O)c3cc(F)cc(c23)N[C@@H]1c1ccc(F)cc1` + CN1CCN(c2cc(C(=O)Nc3cc4cc(-c5cnn(C)c5)ccc4cn3)ccn2)CC1 gave an IC50 [1] greater than 100 nM, an IC50 [2] greater than 100 nM and an IC50 [3] of less than 0.316 nM. The IC50 [4] was less than 0.316 nM, the IC50 [5] was less than 0.316 nM and the IC50 [6] was less than 0.316 nM. The viability, T/C (second compound 0.0316 µM, first compound 0.000316 µM) was 93.9%, the viability, T/C (second compound 0.0316 µM, first compound 0.001 µM) was 99% and the viability, T/C [7] was 90.5%. For the same compound, the viability, T/C [8] was 92.9%, the viability, T/C [9] was 91.2% and the viability, T/C [10] was 85%. The viability, T/C (second compound 0.1 µM, first compound 0.000316 µM) was 75.4%, the viability, T/C (second compound 0.1 µM, first compound 0.001 µM) was 75% and the viability, T/C [11] was 83.2%. It also gave a viability, T/C [12] of 71.3%, a viability, T/C [13] of 59.1% and a viability, T/C [14] of 50.1%. For the same compound, the viability, T/C (second compound 0.316 µM, first compound 0.000316 µM) was 1.91%, the viability, T/C (second compound 0.316 µM, first compound 0.001 µM) was 2.28% and the viability, T/C [15] was 3.23%. The viability, T/C [16] was 4.91%, the viability, T/C [17] was 2.64% and the viability, T/C [18] was 2.84%. The viability, T/C (second compound 1 µM, first compound 0.000316 µM) was 0.1%, the viability, T/C (second compound 1 µM, first compound 0.001 µM) was 1.11% and the viability, T/C [19] was 0.09%. It also gave a viability, T/C [20] of 0.08%, a viability, T/C [21] of 0.09% and a viability, T/C [22] of 0.1%. For the same compound, the viability, T/C (second compound 3.16 µM, first compound 0.000316 µM) was 0.09%, the viability, T/C (second compound 3.16 µM, first compound 0.001 µM) was 0.12% and the viability, T/C [23] was 0.1%. For the same compound, the viability, T/C [24] was 1.05%, the viability, T/C [25] was 1.67% and the viability, T/C [26] was 0.12%. The viability, T/C (second compound 10 µM, first compound 0.000316 µM) was 0.11%, the viability, T/C (second compound 10 µM, first compound 0.001 µM) was 0.16% and the viability, T/C [27] was 0.17%. The viability, T/C [28] was 0.29%, the viability, T/C [29] was 0.12% and the viability, T/C [30] was 0.14%.
For `CNC(=O)c1ccc(Nc2nc(OC3CCCC3)c3c(-c4ccc5nc(C)oc5c4)c[nH]c3n2)c(OC)c1`, the viability, T/C (compound 0.0316 µM) was 106% [middle of 12 runs], the viability, T/C (compound 0.1 µM) was 104% [middle of 12 runs] and the viability, T/C (compound 0.316 µM) was 47.8% [middle of 12 runs]. For the same compound, the viability, T/C (compound 1 µM) was 30.7% [middle of 12 runs], the viability, T/C (compound 3.16 µM) was 26.1% [middle of 12 runs] and the viability, T/C (compound 10 µM) was 28.5% [middle of 11 runs]. The IC50 (compound alone, run of 09/19/2023) was 302 nM [middle of 12 runs].
In the case of `CCc1c2c(nc3ccc(O)cc13)-c1cc3c(c(=O)n1C2)COC(=O)[C@]3(O)CC` + CN1CCN(c2cc(C(=O)Nc3cc4cc(-c5cnn(C)c5)ccc4cn3)ccn2)CC1, the IC50 [1] is reported as less than 3.16 nM, the IC50 [2] is reported as less than 3.16 nM and the IC50 [3] is reported as less than 3.16 nM. The IC50 [4] was less than 3.16 nM, the IC50 [5] was less than 3.16 nM and the IC50 [6] was less than 3.16 nM. It also gave a viability, T/C [7] of 26.9%, a viability, T/C [8] of 17.1% and a viability, T/C [9] of 12.6%. For the same compound, the viability, T/C [10] was 6.38%, the viability, T/C [31] was 3.17% and the viability, T/C [32] was 0.71%. It also gave a viability, T/C [11] of 21.8%, a viability, T/C [12] of 21.1% and a viability, T/C [13] of 9.73%. For the same compound, the viability, T/C [14] was 3.23%, the viability, T/C [33] was 1.75% and the viability, T/C [34] was 0.31%. The viability, T/C [15] was 2.15%, the viability, T/C [16] was 3.91% and the viability, T/C [17] was 2.2%. The viability, T/C [18] was 0.98%, the viability, T/C [35] was 0.1% and the viability, T/C [36] was 0.1%. It also gave a viability, T/C [19] of 0.08%, a viability, T/C [20] of 0.1% and a viability, T/C [21] of 0.1%. It also gave a viability, T/C [22] of 0.05%, a viability, T/C [37] of 0.07% and a viability, T/C [38] of 0.09%. The viability, T/C [23] was 0.1%, the viability, T/C [24] was 0.13% and the viability, T/C [25] was 0.14%. It also gave a viability, T/C [26] of 0.11%, a viability, T/C [39] of 0.16% and a viability, T/C [40] of 0.15%. For the same compound, the viability, T/C [27] was 0.07%, the viability, T/C [28] was 0.12% and the viability, T/C [29] was 0.17%. The viability, T/C [30] was 0.18%, the viability, T/C [41] was 0.21% and the viability, T/C [42] was 0.18%.
In the case of `CC(Nc1ccc2c(c1)OCCn1cc(N3C(=O)OCC3C(F)F)nc1-2)C(N)=O` (configuration not stated), the viability, T/C (compound 0.0316 µM) is reported as 98.3% and 101%, the viability, T/C (compound 0.1 µM) is reported as 95.5% and 92.3% and the viability, T/C (compound 0.316 µM) is reported as 99.5% and 84%. For the same compound, the viability, T/C (compound 1 µM) was 84.7% and 86.1%, the viability, T/C (compound 3.16 µM) was 78.1% and 71% and the viability, T/C (compound 10 µM) was 54.1% and 45%. The IC50 (curve of compound) was > 10000 nM and 8310 nM.
Compound `CCc1c2c(nc3ccc(O)cc13)-c1cc3c(c(=O)n1C2)COC(=O)[C@]3(O)CC` + CNC(=O)c1ccc(Nc2nc(OC3CCCC3)c3c(-c4ccc5nc(C)oc5c4)c[nH]c3n2)c(OC)c1 has an IC50 [1] of less than 3.16 nM, an IC50 [2] of less than 3.16 nM and an IC50 [3] of less than 3.16 nM. For the same compound, the IC50 [4] was less than 3.16 nM, the IC50 [5] was less than 3.16 nM and the IC50 [6] was less than 3.16 nM. For the same compound, the viability, T/C [7] was 27.4%, the viability, T/C [8] was 16.7% and the viability, T/C [9] was 12.8%. It also gave a viability, T/C [10] of 5.45%, a viability, T/C [31] of 4.91% and a viability, T/C [32] of 1.19%. It also gave a viability, T/C [11] of 21.7%, a viability, T/C [12] of 18.1% and a viability, T/C [13] of 13.6%. The viability, T/C [14] was 9.68%, the viability, T/C [33] was 3.81% and the viability, T/C [34] was 1.47%. For the same compound, the viability, T/C [15] was 20.4%, the viability, T/C [16] was 17.1% and the viability, T/C [17] was 10.5%. For the same compound, the viability, T/C [18] was 6.75%, the viability, T/C [35] was 2.62% and the viability, T/C [36] was 1.9%. For the same compound, the viability, T/C [19] was 24%, the viability, T/C [20] was 17.2% and the viability, T/C [21] was 6.96%. The viability, T/C [22] was 2.96%, the viability, T/C [37] was 2.33% and the viability, T/C [38] was 1.14%. The viability, T/C [23] was 24.5%, the viability, T/C [24] was 16.7% and the viability, T/C [25] was 7.28%. The viability, T/C [26] was 4.75%, the viability, T/C [39] was 2.45% and the viability, T/C [40] was 0.84%. The viability, T/C [27] was 22.6%, the viability, T/C [28] was 15.3% and the viability, T/C [29] was 4.85%. For the same compound, the viability, T/C [30] was 5.04%, the viability, T/C [41] was 3.11% and the viability, T/C [42] was 0.6%.
`C=C(F)C(=O)N1CCN(c2nc(OCC3CCCN3C)nc3c2CCN(c2cccc4cccc(Cl)c24)C3)CC1CC#N` (configuration not stated) was tested, and the viability, T/C (compound 0.0316 µM) was 105% and 106%, the viability, T/C (compound 0.1 µM) was 102% and 107% and the viability, T/C (compound 0.316 µM) was 110% and 114%. For the same compound, the viability, T/C (compound 1 µM) was 93.8% and 109%, the viability, T/C (compound 3.16 µM) was 104% and 105% and the viability, T/C (compound 10 µM) was 1.39% and 0.39%. The IC50 (curve of compound) was 5770 nM and 5780 nM.
